Test results as given in ChEMBL document CHEMBL4837186, “Structural Elucidation of Garcipaucinones A and B From Garcinia paucinervis Using Quantum Chemical Calculations” (J Nat Prod, 2021).

Columns and labels:
Type in all cases: functional, cell-based
T98G = test: Cytotoxicity against human T98 cells assessed as reduction in cell viability after 24 hrs by CCK8 assay
MCF7 = test: Cytotoxicity against human MCF7 cells assessed as reduction in cell viability after 24 hrs by CCK8 assay; details: MCF7, 24 h
HepG2 = test: Cytotoxicity against human HepG2 cells assessed as reduction in cell viability after 24 hrs by CCK8 assay; details: HepG2, 24 h
RAW264.7 = test: Anti-inflammatory activity in mouse RAW264.7 cells assessed as inhibition of LPS-induced NO production after 24 hrs by Griess reagent-based assay; details: RAW264.7, 24 h

IC50 (RAW264.7) | SMILES | IC50 (T98G) | IC50 (MCF7) | IC50 (HepG2)
> 20 µM | CC(C)=CCC/C(C)=C/CC/C(C)=C/CC[C@]1(C)CCC2=C(O1)[C@]1(C)C[C@@](O)(Oc3c1occc3=O)C2=O | > 20 µM | > 20 µM | > 20 µM
> 20 µM | CC(C)=CCC/C(C)=C/CC/C(C)=C/CC[C@]1(C)CCC2=C(O1)[C@@]1(C)C[C@](O)(Oc3c1occc3=O)C2=O | > 20 µM | > 20 µM | > 20 µM
8.28 µM | C[C@@H]1C[C@H]2[C@@H]3CCC4=CC(=O)C=C[C@]4(C)[C@@]3(F)[C@@H](O)C[C@]2(C)[C@@]1(O)C(=O)CO [DEXAMETHASONE] | – | – | –
